Laboratory results reported in patent publication US4810630A, “Use of polyoxyethylene ethers to improve the performance of immunoassays employing peroxidase conjugates” (priority 1987, dated 1989).

System: N. gonorrhea
Assay: Microtiter plate enzyme immunoassay: optimization of coating antibody concentration with detergent in assay buffer
Parameters: species or system Neisseria gonorrhea
Description: Samples were treated 1.0N NaOH and neutralized with assay buffer as described in Example 1, above. For this assay, 0.100 mL aliquots of the treated, neutralized sample were transferred to the wells of a 96-well microtiter plate which had been previously incubated with an optimized concentration of anti-N. gonorrhea antibody diluted in phosphate buffered saline for 90-120 minutes, drained, then blocked with a solution containing 1.0% bovine serum albumin and 20% sucrose in phosphate buffered saline for 2 hours and dried in vacuo. The aliquots were permitted to incubate in the microtiter plate wells for 90 minutes at room temperature,then drained and washed with phosphate buffered saline containing 0.05% Tween® 20. Horseradish peroxidase conjugated anti-N. gonorrhea, 100 μL of an optimized concentration, was then added to each well and the plate again incubated for 1 hour at room temperature. The plate was then drained and washed as above. A 100 μL portion of the substrate/chromogen solution described in Example 1, above, was then added to each well and incubated for 10 minutes at room temperature. The absorbance of each well was then determined at 630 nm, and corrected for the absorbance at 490 nm.
Antibody specific for Neisseria gonorrhea was used to coat the wells of microtiter plates at varying concentrations in phosphate buffered saline, as described above. A comparison of the optimal antibody concentration in assays using Tween® 20 or Triton® X-100 was made by testing a single concentration of N. gonorrhea in wells previously coated, blocked, and dried as described above. The optimum concentration of antibody is identified as that which yields the maximum signal in the assay with a minimal background response. Table 4 lists the results of such experiments using Tween® 20 and Triton® X-100 as detergents in the assay buffer.

| Substance | % Maximum Signal (coating antibody 0.20 μg/well) [%] | % Maximum Signal (coating antibody 0.30 μg/well) [%] | % Maximum Signal (coating antibody 0.35 μg/well) [%] | % Maximum Signal (coating antibody 0.40 μg/well) [%] | % Maximum Signal (coating antibody 0.45 μg/well) [%] | % Maximum Signal (coating antibody 0.5 μg/well) [%] | % Maximum Signal (coating antibody 0.60 μg/well) [%] | % Maximum Signal (coating antibody 0.05 μg/well) [%] | % Maximum Signal (coating antibody 0.1 μg/well) [%] | % Maximum Signal (coating antibody 0.8 μg/well) [%] | % Maximum Signal (coating antibody 1.0 μg/well) [%] | % Maximum Signal (coating antibody 1.5 μg/well) [%] | % Maximum Signal (coating antibody 2.0 μg/well) [%] |
| --- | --- | --- | --- | --- | --- | --- | --- | --- | --- | --- | --- | --- | --- |
| polyoxyethylene-octylphenoxy [Triton ® X-100] | 100 | 98 | 70 | 69 | 66 | 58 | 57 |  |  |  |  |  |  |
| polyoxyethylene-sorbitan monolaurate [Tween ® 20] |  |  |  |  |  | 100 |  | 16 | 35 | 98 | 90 | 77 | 66 |
